Results on one compound are retold here after patent US20190111168A1, “PHOTOSENSITIZER DISPERSION, AND USE THEREOF” (Universität Regensburg, priority 2016, published 2019).

The data set is described as follows: absorption spectrum following irradiation with varying doses of light (degradation of photosensitizer). Format: physicochemical. The note with it: light dose 5.5 J to 990 J. As to the method:
The absorption of the FL-AS-H-1a photosensitizer used in the microemulsions E5 and E6 was determined by recording an absorption spectrum for a wavelength range of 250 nm to 600 nm, as described in Example 1. To this end, the FL-AS-H-2 photosensitizer was dissolved in a concentration of 10 μM in the microemulsions E5 and E6, as well as in water. Furthermore, an absorption spectrum of FL-AS-H-2 in microemulsions E5 and E6 as well as in water was measured following irradiation with varying doses of light. For the irradiation, the light source Blue V from Waldmann, which emits light at 380 to 480 nm (emission maximum at approximately 420 nm) was used. The applied light dose was from 5.5 J to 990 J.

Molecules are shown by their SMILES.

For the compound `Cc1cc2nc3c(=O)n(CCN)c(=O)nc-3n(CCN)c2cc1C.Cl.Cl` [FL-AS-H-2, 3,10-bis(2′-aminoeth-1′-yl)-7,8-dimethylbenzo[g]pteridine-2,4-dion-dihydrochloride], the “degradation of the photosensitizer following irradiation” value (10 μM in water, microemulsions E5 and E6, Blue V 380 to 480 nm) was “degraded both in water as well as in the microemulsions E5 and E6”. Further, the “rate of degradation in water compared with microemulsion E5 or E6” value (10 μM, Blue V) is “significantly faster”.
